From patent US20110263539A1, “SHIP 1 MODULATOR COMPOUNDS” (THE UNIVERSITY OF BRITISH COLUMBIA, priority 2006, published 2011)

Key:
SHIP enzyme = experiment: In vitro SHIP enzyme assay (Assay 1); type: biochemical; as to Assay Number 1: SHIP enzyme assay: key: a ‘+’ indicates a positive result for desired activity; a ‘−’ indicates a negative result for desired activity
Procedure: Assay 1) In vitro testing in a SHIP enzyme assay. Test compounds were dissolved in a suitable solvent (e.g. EtOH, DMSO and others) and diluted into aqueous buffer (20 mM Tris HCl, pH 7.5 and 10 mM MgCl2). SHIP enzyme assays were performed in 96-well microtitre plates with 10 ng of enzyme/well in a total volume of 25 μL of 20 mM Tris HCl, pH 7.5 and 10 mM MgCl2. SHIP enzyme was incubated with test extracts (provided in solvent) or vehicle for 15 min at 23° C. before the addition of 100 μM inositol-1,3,4,5-tetrakisphosphate (Echelon Biosciences Inc, Salt Lake City, Utah). After 20 min at 37° C. and the amount of inorganic phosphate released assessed by the addition of Malachite Green reagent and absorbance measurement at 650 nm.
For in vitro testing in the SHIP enzyme assay, AQX-016A and Compound 100 were dissolved in EtOH and diluted into aqueous buffer (20 mM Tris HCl, pH 7.5 and 10 mM MgCl2). The actual concentration of drug in solution was determined by optical density measurement at 280 nm (λmax for both compounds) after high speed centrifugation at 14 000×g for 30 min to remove precipitated drug. For testing on cells, compounds were formulated in the carrier cyclodextrin (Cyclodex Technologies, High Springs, Fla.) at 6 mM (2 mg/mL). For oral administration to animals, compounds were dissolved in 100% cremophore EL (Sigma-Aldrich Canada, Oakville, Ontario) at 150 mM (50 mg/mL) prior to dilution to 6 mM in phosphate buffer saline. However, while these compounds caged in cyclodextrin or formulated in cremophore EL micelles were very soluble in aqueous solution, they could not be used in the SHIP enzyme assays because of interference from both cyclodextrin and cremophore EL.
N-terminal His6 tagged SHIP enzyme was expressed in mammalian 293T cells by transient transfection with pME18S-His-SHIP plasmid and purified to >95% homogeneity by Ni-chelating bead chromatography (Qiagen, Mississauga, Ontario). Recombinant SHIP C2 domain (amino acid residues 725 to 863) was expressed in E. coli transformed with a pET28C expression vector constructed as described below. Recombinant protein purified from the cell lysates by Nichelating bead chromatography was >95% pure.
In vitro SHIP enzyme assay. SHIP enzyme assays were performed in 96-well microtitre plates with 10 ng of enzyme/well in a total volume of 25 μL of 20 mM Tris HCl, pH 7.5 and 10 Mm MgCl2. SHIP enzyme was incubated with test extracts (provided in DMSO) or vehicle for 15 min at 23° C. before the addition of 100 μM inositol-1,3,4,5-tetrakisphosphate (Echelon Biosciences Inc, Salt Lake City, Utah). After 20 min at 37° C. and the amount of inorganic phosphate released assessed by the addition of Malachite Green reagent and absorbance measurement at 650 nm. SHIP2 enzyme was purchased from Echelon Biosciences (Salt Lake City, Utah) and an equivalent amount of inositol phosphatase activity was used in the in vitro enzyme assay. Enzyme data are expressed as the mean of triplicates +/−SEM. Experiments were performed at least 3 times. (FIGS. 7A and 7B).

[1] = test system: SHIP+/+ bone marrow derived macrophages; experiment: LPS stimulation of SHIP+/+ bone marrow derived macrophages; type: cell-based, mice
Procedure: Bone marrow cells were aspirated from 4 to 8 week old C57B16×129Sv mixed background mice and SHIP and SHIP cells prepared as described previously. Bone marrow derived macrophages from SHIP^+/+ and SHIP^−/− mice were obtained and maintained in IMDM supplemented with 10% FCS, 150 μM MTG, 2% C127 cell conditioned medium as a source of macrophage colony stimulating factor (M-CSF) (macrophage medium)
LPS stimulation of macrophages. For the analysis of LPS-stimulated TNFα production, 2×10^5 cells were plated the night before in 24 well plates in macrophage medium. The next day, the medium was changed and AQX-016A or carrier was added to cells at the indicated concentrations for 30 min prior to the addition of 10 ng/mL LPS. Supernatants were collected for TNFα determination by ELISA (BD Biosciences, Mississauga, ON, Canada). For analysis of intracellular signaling, 2×10^6 cells were plated the night before in 6 cm tissue culture plates. The next day, the cells were cultured in macrophage medium without M-CSF for 1 hr at 37° C. and then pretreated with AQX-016A or carrier for 30 min prior to the addition of 10 ng/mL LPS for 15 min. Cells were washed with 4° C. PBS and resuspended in lysis buffer (50 mM Hepes, 2 mM EDTA, 1 mM NaVO4, 100 mM NaF, 50 mM NaPPi and 1% NP40) supplemented with Complete Protease Inhibitor Cocktail (Roche, Montreal, Canada). Lysates were rocked at 4° C. for 30 min and clarified by centrifuging 20 min at 12000×g. Lysates were then made 1× in Laemmli's buffer, boiled 2 min and loaded onto 7.5% SDS polyacrylamide […]. Immunoblot analysis for phospho PKB (Cell Signalling, Mississauga, Ont), SHIP and actin (Santa Cruz, Santa Cruz, Calif.) were carried out as described previously.
The target specificity and biological efficacy of AQX-016A were assessed by comparing AQX-016A's effects on PI3K-regulated processes in primary SHIP^+/+ vs SHIP^−/− macrophages and mast cells. […] LPS stimulation of macrophages is associated with a PIP3-dependent release of pro-inflammatory mediators such as TNFα. […]

Cc1cc(O)cc2c1[C@]1(C)CCC3C(C)(C)CCC[C@]3(C)[C@H]1C2 (stereo partly shown) [Compound 100]
Assay Number 1: SHIP enzyme assay (SHIP enzyme; 100 μM inositol-1,3,4,5-tetrakisphosphate, Malachite Green): + | SHIP enzyme activity (SHIP enzyme; wild-type SHIP): enhanced SHIP enzyme activity in vitro | inhibition of TNFα production, SHIP+/+ vs SHIP−/− macrophages ([1]; LPS stimulated): selectively inhibited | EC50 for inhibition of TNFα production ([1]; LPS stimulated SHIP+/+ macrophages): submicromolar
